Measurements taken from patent publication US10577322B2, “5-methoxytryptophan and its derivatives and uses thereof” (National Health Research Institutes, priority 2015, dated 2020).

How the values were obtained:
[1] = system: BALF total cell number; experiment: Cell number in bronchoalveolar lavage fluid (trypan blue exclusion); type: in vivo, mice; conditions: 24 h after LPS
Experimental: Furthermore, bronchoalveolar lavage fluid (BALF) was isolated from mice treated with LPS with or without various concentrations of 5-MTP for 24 h. Cell number in BALF was determined by trypan blue exclusion assay.

[2] = system: iNOS; experiment: iNOS immunohistochemistry in lung tissues of LPS-treated mice; type: in vivo; conditions: LPS 60 mg/kg; 12 h, 16 h and 24 h
Experimental: (§1) Prior to immunohistochemical detection of COX-2, iNOS, Ly6g, or cleaved caspase-3 in lung sections, sections were deparaffinized with xylene, progressively rehydrated through graded alcohols. Antigen sites were retrieved by heating the sections on slides in pH 8 EDTA antigen. retrieval (Trilogy; Cell Marque Corporation) in electric pressure cooker for 15 min. […] All antibodies described hereafter were diluted in blocking buffer. Sections were incubated at room temperature for 2 h with primary antibody and then washed in PBST. The sections were incubated with primary antibody amplifier quanta (Thermo) for 10 minutes. After rinsing with PBST, the sections were incubated with HRP Polymer Quanto (Thermo) for 10 minutes and washed three times with PBST. COX-2, iNOS, Ly6g and cleaved caspase-3 were visualized by the addition of DAB Quanto Chromogen: Substrate for 3 minutes. Tissues were also counterstained with hematoxylin.
Moreover, paraffin-embedded sections were prepared from lungs of mice injected with 60 mg/kg LPS with or without saline or 5-MTP at 12 h, 16 h and 24 h. COX-2 and inducible nitric oxide synthase (iNOS) protein levels in lung tissues were determined by immunohistochemistry by staining with anti-COX-2 and anti-iNOS antibodies, respectively. The results are shown in FIGS. 6A-6B, in which scale bars represent 100 μm. […]

[3] = system: IL-6 promoter; experiment: IL-6 promoter-luciferase assay in RAW264.7 cells; type: cell-based, mouse; conditions: LPS 8 h
Experimental: RAW264.7 macrophages were cotransfected with COX-2 promoter-luciferase, IL-6 promoter-luciferase constructs as previously described (Lee, G. L., et al.) or p5xNF-κB-luciferase (Stratagene) and pcDNA3.1-β-galactosidase plasmids using FuGENE 6 (Roche). After overnight transfection, the cells were incubated with or without LPS in the presence or absence of 5-MTP for 8 h. After treatment, cells were lysed, and luciferase activity was measured using an assay kit (Promega). β-galactosidase activity was used to normalize the data.
Moreover, RAW264.7 cells and IL-6 promoter-luciferase plasmid transfected RAW264.7 cells were pretreated with different concentrations of 5-MTP for 30 min, followed by LPS stimulation for 8 h. IL-6 promoter activity was measured by luciferase assay. IL-6 level in culture supernatants was measured by ELISA.

[4] = system: p300 HAT; experiment: p300 HAT activity in peritoneal macrophages; type: cell-based, mouse; conditions: LPS, 5-MTP 50 μM
Experimental: p300 HAT activity in peritoneal macrophages treated with LPS in the presence or absence of 5-MTP (50 μM) for the indicated time was measured with an p300 HAT activity assay kit.

[5] = system: caspase-3; experiment: Cleaved caspase-3 immunohistochemistry in lung tissues; type: in vivo, mice; conditions: LPS 60 mg/kg, 12 and 16 h
Experimental: as §1
Paraffin-embedded sections were prepared from lung tissues of mice treated with saline or LPS (60 mg/kg) with or without various concentrations of 5-MTP for 12 or 16 h. Activated caspase-3 level in lung tissues was determined by immunohistochemical staining of cleaved caspase-3. The results are shown in FIG. 9A, in which scale bars represent 200 μm.

[6] = system: caspase-3; experiment: Caspase-3 activity in splenocytes (fluorogenic substrate); type: in vivo, mice; conditions: 5-MTP 100 mg/kg, 16 h
Experimental: Caspase-3 activity was determined by the cleavage of the fluorometric substrate z-DEVD-AMC (Upstate Biotechnology) as previously described (Kuo, C. C., Liang, C. M., Lai, C. Y. & Liang, S. M. Involvement of heat shock protein(Hsp)90 beta but not Hsp90 alpha in antiapoptotic effect of CpG-B oligodeoxynucleotide. J Immunol 178, 6100-6108 (2007)).
In addition, caspase-3 activity in splenocytes of mice treated with saline, LPS or LPS plus 5-MTP (100 mg/kg) for 16 h was measured by fluorogenic substrate as described above. The results are shown in FIG. 9B, in which the error bare denotes mean±SD (n=6 mice/group).

[7] = system: proinflammatory cytokines; experiment: Proinflammatory cytokines level in serum of LPS-treated mice (ELISA); type: in vivo
Experimental: C57BL/6 mice (6-8 wks old) were treated intraperitoneally with saline or with different concentrations of 5-MTP (23.4 or 100 mg/kg) for 30 min before intraperitoneal administration of LPS (60 mg/kg). Animals were monitored for survival and other clinical signs including ruffled fur, lethargy, diarrhea, and body weight loss. Some animals were sacrificed at different times after LPS injection. Blood samples, peritoneal exudates, lungs, and spleens were collected. All mouse experiments were approved by the institutional Animal Care and Use Committee, National Health Research Institutes.
Cytokine levels in the culture supernatants and serum were determined in microtiter plates (96-well) by a specific sandwich ELISA (Biosource) as previously described (Wu, J. Y. & Kuo, C. C. Pivotal role of ADP-ribosylation factor 6 in Toll-like receptor 9-mediated immune signaling. J Biol Chem 287, 4323-4334 (2012)) (Lee, G. L., et al. TLR 2 induces vascular smooth muscle cell migration through cAMP response element-binding protein-mediated interleukin-6 production. Arterioscler Thromb Vasc Biol 32, 2751-2760 (2012); hereinafter, Lee, G. L., et al.).
Mice were injected intraperitoneally with or without different concentrations of 5-MTP or saline for 30 min, followed by LPS administration for the indicated time. Proinflammatory cytokines level in serum was measured by ELISA. (n=6 per group).

[8] = system: chemokines; experiment: Serum chemokine level in LPS-injected mice (ELISA); type: in vivo; conditions: 5-MTP 23.4 mg/kg, 24 h
Experimental: Furthermore, chemokine level was measured by ELISA in the serum of saline or LPS-injected mice with or without saline or 5-MTP (23.4 mg/kg) after 24 h (n=10). The results shown in FIG. 8C indicate that LPS-induced elevation of chemokines, CXCL1, MCP-1, RANTES and eotaxin in the serum was blunted by 5-MTP treatment at 24 h.

[9] = LPS-treated mice, dose- and time-dependent

Structure (SMILES): COc1ccc2[nH]cc(C[C@H](N)C(=O)O)c2c1 [5-MTP, 5-methoxytryptophan]
- total cell number in BALF [1]: reduced by 5-MTP in a dose-dependent manner
- iNOS expression in lung tissues [2]: suppresses
- LPS-induced IL-6 promoter activity [3]: inhibited
- p300 HAT activation [4]: significantly blocked p300 HAT activation up to 24 h
- cleaved caspase-3 in lung tissues [5]: reduced by 5-MTP
- LPS-induced caspase-3 cleavage in spleen cells [6]: prevented
- all the tested serum cytokines ([7]; 5-MTP at 23.4 mg/kg): significantly reduced
- all the tested serum cytokines ([7]; 5-MTP at 100 mg/kg): reduced the cytokines to the basal level
- rise of IL-12 ([7]; LPS-treated mice, data not shown): suppressed the rise
- blood level of IL-1β [7, 9]: abated the elevation
- blood level of IL-6 [7, 9]: abated the elevation
- blood level of INF-κ [7, 9]: abated the elevation
- blood level of TNF-α [7, 9]: abated the elevation
- LPS-induced elevation of CXCL1 in serum [8]: blunted
- LPS-induced elevation of MCP-1 in serum [8]: blunted
- LPS-induced elevation of RANTES in serum [8]: blunted
- LPS-induced elevation of eotaxin in serum [8]: blunted
